In patent US20230000876A1, “TREATING CANCERS WITH A CYCLIN-DEPENDENT KINASE INHIBITOR” (Nuvation Bio Inc., priority 2021, published 2023):

Tests used:
PC-9-luc = experiment: CellTiter-Glo anti-proliferation assay, PC-9-luc; type: cell-based
Procedure: The anti-proliferation effect of 2 compounds (the compound of formula (I) and temozolomide) in 7 CNS metastasis cell lines (MOLT-4-luc, Nalm-6-luc, NCI-H460-luc, ACHN-luc2, PC-9-luc, H1975-luc, and KM12-luc) was evaluated.
The plating of cells and compound treatments are shown below in the plate map (Table 12). One plate was needed for the test of 2 compounds (the compound of formula (I) and temozolomide) in one cell line. The compound of formula (I) was tested from 10 μM, 3-fold serial dilution. Temozolomide was tested from 100 μM, 3-fold serial dilution.
All the cell lines were maintained in culture conditions at 37° C. in an atmosphere with 5% CO2 in air. The tumor cells were routinely subcultured. The cells growing in an exponential growth phase were harvested and counted for plating.
Cells were counted by haemocytometer with Trypan blue staining. Next, 135 μL of cell suspension were plated into the assay plates according to the plate map and 135 μL of assay medium into the blank wells. The plates were incubated at 37° C., 5% CO2, 95% air and 100% relative humidity overnight.
(§1) 4.4.4 Compound Plate (10×) Preparation and Compound Treatment • 10× concentrate compound plate preparation: Add 198 μL of assay medium into each well of the V-bottom plate; then transfer 2 μL of the stock compound solution of each concentration from the stock plate. Add 2 μL of DMSO into the Blank and Control wells. Pipette up and down to mix well. This V-plate is designated as the 10× concentrate compound plate. • For day 0 plate, add 15 μL of the DMSO-medium into the Control wells. The final DMSO concentration was 0.1%. Then directly proceed to cell viability assay. • For assay plate, add 15 μL of the compound-medium of each well from the 10× concentrate compound plate into the cells in 96-well assay plate according to the plate map. Add 15 μL of the DMSO-medium into the Blank and Control wells. The final DMSO concentration was 0.1%. • Return the assay plate into incubator and incubate for 6 days.
(§2) The procedures were performed according to the Promega CellTiter-Glo Luminescent Cell Viability Assay Kit manual (Promega-G7573). • The CellTiter-Glo buffer was thawed and equilibrated to room temperature prior to use. • CellTiter-Glo Substrate was equilibrated to room temperature prior to use. • The entire liquid volume of CellTiter-Glo Buffer was transferred into the amber bottle containing CellTiter-Glo Substrate to reconstitute the lyophilized enzyme/substrate mixture. This forms the CellTiter-Glo Reagent. • The contents were mixed by gently vortexing to obtain a homogeneous solution. • The plate was equilibrated and its contents to room temperature for approximately 30 minutes. 75 μL (equal to the half volume of culture medium present in each well) CellTiter-Glo • Reagent was added in each well. Plates were covered with aluminum foil to protect from light. • The contents were mixed for 2 minutes on an orbital shaker to induce cell lysis. • The plate was incubated at room temperature for 20 minutes to stabilize luminescent signal. • Record luminescence on the 2104 EnVision plate reader.
Inhibition rate (IR) of the tested compounds was determined by the following formula: IR (%)=(1−(RLU compound−RLU day0)/(RLU control−RLU day0))*100%. The inhibitions of different dose of compound were calculated in Excel file, and then were used to plot inhibition curves and evaluate related parameters, such as Min (%), Max (%) and GI50. The data were interpreted by GraphPad Prism.

SK-MEL-3 = experiment: Cell viability assay, melanoma cell line SK-MEL-3; type: cell-based
Procedure: as §1
as §2, with “This forms the CellTiter-Glo Reagent. • The contents were mixed by gently vortexing to obtain a homogeneous solution. • The plate was equilibrated and its contents to room temperature for approximately 30 minutes. 75 μL (equal to the half volume of culture medium present in each well) CellTiter-Glo • Reagent was added in each well.” left out
Inhibition rate (IR) of the tested compounds was determined by the following formula: IR (%)=(1−(RLU compound−RLU day0)/(RLU control−RLU day0))*100%. The inhibitions of different dose of compound were calculated in Excel file, and then were used to plot inhibition curves and evaluate related parameters, such as Min (%), Max (%) and GI50. […]

22Rv1 tumors = experiment: 22Rv1 prostate tumor model (Example 3); type: in vivo, male Balb/c nude mice; details: for T/C / TGI: PG-D24
Procedure: The in vivo anti-tumor efficacy of the compound of formula (I) either alone or in combination with enzalutamide prostate tumor model on male Balb/c nude mice was evaluated. The cell line is derived from a xenograft that was serially propagated in mice after castration—induced regression and relapse of the parental, androgen-dependent CWR22 xenograft.
In the study, the compound of formula (I) was dosed orally (po) once daily (QD) and enzalutamide, when administered, was dosed orally once daily for 25 days, as shown in Table 8.
The 22Rv1 tumor cells were maintained in vitro in RPMI1640 medium supplemented with 10% heat inactivated fetal bovine serum at 37° C. in an atmosphere of 5% CO2 in air. The tumor cells were routinely subcultured twice weekly. The cells growing in an exponential growth phase were harvested and counted for tumor inoculation.
Each mouse was inoculated subcutaneously at the right flank with 22Rv1 tumor cells (5*10^6) with 50% Matrigel for tumor development. The treatments were started on day 7 after tumor inoculation when the average tumor volume reached 94 mm^3. A total of 48 mice were selected and assigned into 6 groups. The testing articles were administrated to the mice according to Table 8.
The major endpoint was to see if the tumor growth could be delayed or mice could be cured. Tumor size was measured twice weekly in two dimensions using a caliper, and the volume was expressed in mm^3 using the formula: V=0.5 a×b^2 where a and b are the long and short diameters of the tumor, respectively. The tumor sizes are then used for the calculation of T/C and TGI values.
The T/C value (in percent) is an indication of antitumor effectiveness; T and C are the mean volume of the treated and control groups, respectively, on a given day.
TGI was calculated for each group using the formula: TGI (%)=[1−(Ti−T0)/(Vi−V0)]×100; Ti is the average tumor volume of a treatment group on PG-Di, T0 is the average tumor volume of the treatment group on the day of treatment start, Vi is the average tumor volume of the vehicle control group on the same day with Ti, and V0 is the average tumor volume of the vehicle group on the day of treatment start.
All groups were taken down on PG-D24 and PG-D25 when the average tumor size of vehicle group reached 2305 mm^3.
Summary statistics, including mean and the standard error of the mean (SEM), are provided for the tumor volume of each group at each time point. For comparison among groups, a one-way ANOVA was performed. All the analysis were conducted using GraphPad Prism software. p<0.05 was considered to be statistically significant.

[1] = inhibition rate, 6 days, Compound (I) from 10 μM, temozolomide from 100 μM, 3-fold, 9 points

## CC(C)N1CCOc2c(F)cc(-c3nc(Nc4ccc(C5CCN(C)CC5)cn4)ncc3F)cc21 [Compound (I), 5-fluoro-4-(8-fluoro-4-isopropyl-3,4-dihydro-2H-benzo[b][1,4]oxazin-6-yl)-N-(5-(1-methylpiperidin-4-yl)pyridin-2-yl)pyrimidin-2-amine]
PC-9-luc; 144 h, 6 days incubation, read-out: Absolute GI50
  GI50: 2790 nM
PC-9-luc; [1]
  Max (%): 116.3%
  Min (%): −13.7%
SK-MEL-3; Homo sapiens, SK-MEL3, read-out: Absolute GI50
  GI50: 174 nM
SK-MEL-3; inhibition rate
  Max (%): 111.93%
  Min (%): −1.51%
22Rv1 tumors; 10 mg/kg QD
  T/C: 61.13%
  TGI: 40.49%
22Rv1 tumors; Compound (I) 30 mg/kg QD
  T/C: 28.34%
  TGI: 74.71%
22Rv1 tumors; Group 3, 10 mg/kg PO QD, day 0
  Tumor volume (mean ± SEM): 94 ± 5 mm^3
22Rv1 tumors; Group 3, 10 mg/kg PO QD, day 3
  Tumor volume (mean ± SEM): 154 ± 12 mm^3
22Rv1 tumors; Group 3, 10 mg/kg PO QD, day 7
  Tumor volume (mean ± SEM): 257 ± 28 mm^3
22Rv1 tumors; Group 3, 10 mg/kg PO QD, day 10
  Tumor volume (mean ± SEM): 378 ± 40 mm^3
22Rv1 tumors; Group 3, 10 mg/kg PO QD, day 14
  Tumor volume (mean ± SEM): 598 ± 58 mm^3
22Rv1 tumors; Group 3, 10 mg/kg PO QD, day 17
  Tumor volume (mean ± SEM): 825 ± 87 mm^3
22Rv1 tumors; Group 3, 10 mg/kg PO QD, day 21
  Tumor volume (mean ± SEM): 1152 ± 114 mm^3
22Rv1 tumors; Group 3, 10 mg/kg PO QD, day 24
  Tumor volume (mean ± SEM): 1409 ± 102 mm^3
22Rv1 tumors; Group 4, 30 mg/kg PO QD, day 0
  Tumor volume (mean ± SEM): 94 ± 4 mm^3
22Rv1 tumors; Group 4, 30 mg/kg PO QD, day 3
  Tumor volume (mean ± SEM): 131 ± 13 mm^3
22Rv1 tumors; Group 4, 30 mg/kg PO QD, day 7
  Tumor volume (mean ± SEM): 165 ± 25 mm^3
22Rv1 tumors; Group 4, 30 mg/kg PO QD, day 10
  Tumor volume (mean ± SEM): 188 ± 30 mm^3
22Rv1 tumors; Group 4, 30 mg/kg PO QD, day 14
  Tumor volume (mean ± SEM): 289 ± 40 mm^3
22Rv1 tumors; Group 4, 30 mg/kg PO QD, day 17
  Tumor volume (mean ± SEM): 398 ± 60 mm^3
22Rv1 tumors; Group 4, 30 mg/kg PO QD, day 21
  Tumor volume (mean ± SEM): 546 ± 67 mm^3
22Rv1 tumors; Group 4, 30 mg/kg PO QD, day 24
  Tumor volume (mean ± SEM): 653 ± 64 mm^3
